Experimental data published in patent publication US20140050805A1, “COMPOSITION, GLUCOSE METABOLISM-IMPROVING AGENT, AND METHOD FOR IMPROVING GLUCOSE METABOLISM” (Lion Corporation, priority 2011, published 2014).

What was measured:
[1] = system: Hyperglycemia model mice (KKAy mice); assay: Blood glucose level in hyperglycemia model mice (KKAy) bred on high fat diet mixed feed for 5 days; assay type: in vivo, mouse
Protocol: (§1) The blood glucose level was measured with a simplified blood glucose level measuring system (trade name: CYCLIC GB SENSOR, product of Sanko Junyaku Co., Ltd.).
Mixed feeds of Examples 4 to 7 and Comparative Examples 6 to 8 were prepared by mixing a commercially available high fat diet (trade name: Quick Fat, product of CLEA Japan, Inc.) with the acid-treated Panax notoginseng product produced in Production Example 1 and at least one of Piper longum extract (trade name, LONG PEPPER EXTRACT POWDER MF, composition: 10% by mass of a hot water extract of Piper longum, 90% by mass of dextrin, product of MARUZEN PHARMACEUTICALS CO., LTD.) and vitamin B1 nitrate (product of Wako Pure Chemical Industries, Ltd.) in respective amounts shown in the following Table 2. The mixed feed of Example 8 was prepared by using Panax notoginseng powder (product of MATSUURA YAKUGYO CO., LTD.) instead of the acid-treated Panax notoginseng product of Example 4. The above commercially available high fat diet only was used in Comparative Example 5.
Hyperglycemia model mice (KKAy mice (obtained from CLEA Japan, Inc.), 20 weeks old, 5 mice/group) were given ad libitum each of the mixed feeds of Examples 4 to 8 and Comparative Examples 5 to 8 to breed them for 5 days.
(§2) The blood glucose levels at 10 a.m. were measured in the same manner as in Example 1, before giving the mixed feed to the hyperglycemia model mice (before the start of breeding with the mixed feed) and after giving the mixed feed to the hyperglycemia model mice for 5 days (after the breeding with the mixed feed). A significance test was performed using the Dunnett's multiple test.

[2] = system: Hyperglycemia model mice (TSOD mouse); assay: Blood glucose level in hyperglycemia model mice (TSOD) bred on mixed feed for 5 days; assay type: in vivo
Protocol: Mixed feeds of Examples 1 to 3 and Comparative Examples 1 to 4 were prepared by mixing a commercially available feed (trade name: D12450B, product of Research Diet Co.) with Panax notoginseng powder (product of MATSUURA YAKUGYO CO., LTD.) and at least one of Piper longum extract (trade name, LONG PEPPER EXTRACT POWDER MF, composition: 10% by mass of a hot water extract of Piper longum, 90% by mass of dextrin, product of MARUZEN PHARMACEUTICALS CO., LTD.) and vitamin B1 nitrate (product of Wako Pure Chemical Industries, Ltd.) in respective amounts shown in the following Table 1. The above commercially available feed only was used in Comparative Example 4.
Hyperglycemia model mice (TSOD mouse (obtained from Institute for Animal Reproduction), 14 weeks old, 5 mice/group) were given ad libitum each of the mixed feeds of Examples 1 to 3 and Comparative Examples 1 to 4 to breed them for 5 days.
as §2, with “measured by” for “measured in”, “the below-described method,” for “the same manner as in Example 1,”
Also, the difference between the blood glucose levels before the start of breeding with the mixed feed and after the breeding with the mixed feed (Δblood glucose level) was calculated using the following calculation formula.
Δ Blood glucose level (mg/dL)=Blood glucose level before the start of breeding with the mixed feed (mg/dL)−Blood glucose level after the breeding with the mixed feed (mg/dL)
as §1

[3] = level before minus level after 5 days of mixed feed

SMILES: Cc1ncc(C[n+]2csc(CCO)c2C)c(N)n1.O=[N+]([O-])[O-] [compound 8, vitamin B1 nitrate]
- Blood glucose levels Before the start of breeding with the mixed feed ([1]; 20 weeks old, 10 a.m., average, baseline before mixed feed): 551 mg/dL
- Blood glucose levels After the breeding with the mixed feed ([1]; high fat diet mixed feed ad libitum for 5 days, 10 a.m., average): 501 mg/dL
- Δ Blood glucose level [1, 3]: 50 mg/dL

SMILES: Cc1ncc(C[n+]2csc(CCO)c2C)c(N)n1.O=[N+]([O-])[O-] [compound 2, vitamin B1 nitrate]
- Blood glucose levels Before the start of breeding with the mixed feed ([2]; 14 weeks old, 10 a.m., average, baseline before mixed feed): 389.2 mg/dL
- Δ Blood glucose level [2, 3]: 43.9 mg/dL
- Blood glucose levels After the breeding with the mixed feed ([2]; mixed feed ad libitum for 5 days, 10 a.m., average): 345.3 mg/dL
